Where “and” joins values, the source holds several entries; their conditions need not be identical. Equal values may be shown once. Read-outs that look alike come from different tables or passages of the source.
Legend:
[1] = system: stalk rust of wheat (Puccinia graminis); assay type: in vivo
[2] = Acute peroral toxicity for warm-blooded animals (LD50, LD90); assay type: in vivo, white mice; conditions: mouse, in vivo, po, Table 2; peroral; read-out: LD50 for white mice
Experimental: Toxicity (LD50) was evaluated on males and females of white mice with peroral administration of the compounds. A portion of the test compound was mixed with the emulsifier Twin-20 and diluted with distilled water to the required working concentration. Administration of the preparation was effected by means of a metal probe and syringe directly into the stomach of test animals 2-3 hours after feeding. The tests were performed using several doses, 6 animals per each dose. Subsequent observation was effected for two weeks.

[3] = system: stalk rust (Puccinia graminis f. tritici); assay type: in vivo; conditions: in vivo

Row | SMILES | Percentage of injury lowered ([1]; in vivo) | LD50 at 336 h [2] [mg/kg] | Percentage of plants injured with rust, 1-st evaluation [3] [%] | Percentage of plants injured with rust, 2-nd evaluation [3] [%] | Weight of 1,000 grains [3] [g] | Yield [3] [c/ha] | Percentage of injury lowered ([1]; at a concentration of 0.02%, sprayed 3 days before inoculation) [%] | Percentage of injury lowered ([1]; at a concentration of 0.1%, sprayed 3 days before inoculation) [%]
1 | CCC(=O)OC(C(Cl)(Cl)Cl)P(=O)(Oc1ccc(F)cc1)Oc1ccc(F)cc1 (stereo not drawn) [XXXIII] | 100% and 62% | > 1000 |  |  |  |  |  | 
2 | Cc1cccc(OP(=O)(Oc2cccc(C)c2)C(OC(=O)c2ccccc2)C(Cl)(Cl)Cl)c1 (stereo not drawn) [XVII] |  | > 1000 |  |  |  |  |  | 
3 | CCCCC(CC)C(=O)OC(C(Cl)(Cl)Cl)P(=O)(Oc1ccc(F)cc1)Oc1ccc(F)cc1 (stereo not drawn) [XXXVI] |  | > 1000 |  |  |  |  |  | 
4 | CCC(=O)OC(C(Cl)(Cl)Cl)P(=O)(Oc1ccc(Cl)cc1)Oc1ccc(Cl)cc1 (stereo not drawn) [XXXI] | 82% and 59% | > 1000 | 0.5 | 8.0 | 18.0 | 13.30 |  | 
5 | CCC(=O)OC(C(Cl)(Cl)Cl)P(=O)(Oc1ccc(Cl)cc1C)Oc1ccc(Cl)cc1C (stereo not drawn) [XXXIX] |  | > 500 |  |  |  |  |  | 
6 | Cc1ccccc1OP(=O)(Oc1ccccc1C)C(OC(=O)c1ccccc1)C(Cl)(Cl)Cl (stereo not drawn) [XI] |  | > 1000 | 0.5 | 8.0 | 17.8 | 12.40 |  | 
7 | CCCCCCC(=O)OC(C(Cl)(Cl)Cl)P(=O)(Oc1ccc(-c2ccccc2)cc1)Oc1ccc(-c2ccccc2)cc1 (stereo not drawn) [XLV] | 72% | > 1000 |  |  |  |  |  | 
8 | CCCC(=O)OC(C(Cl)(Cl)Cl)P(=O)(Oc1cccc2ccccc12)Oc1cccc2ccccc12 (stereo not drawn) [XLIV] | 71% | > 1000 |  |  |  |  |  | 
9 | CC(=O)OC(C(Cl)(Cl)Cl)P(=O)(Oc1ccc(Cl)c(C)c1)Oc1ccc(Cl)c(C)c1 (stereo not drawn) [XL] | 95% and 76% | > 1000 |  |  |  |  |  | 
10 | CCC(=O)OC(C(Cl)(Cl)Cl)P(=O)(Oc1ccccc1)Oc1ccccc1 (stereo not drawn) [II] | 78% and 63% | > 1000 | 0.5 | 11.0 | 16.5 | 11.50 |  | 
11 | CCCCC(CC)C(=O)OC(C(Cl)(Cl)Cl)P(=O)(Oc1ccccc1C)Oc1ccccc1C (stereo not drawn) [X] |  | > 1000 |  |  |  |  |  | 
12 | O=C(OC(C(Cl)(Cl)Cl)P(=O)(Oc1ccccc1)Oc1ccccc1)c1ccccc1 (stereo not drawn) [VI] | 99% and 98% | > 1000 | 0.5 | 8.5 | 16.4 | 11.30 |  | 
13 | O=C(OC(C(Cl)(Cl)Cl)P(=O)(Oc1ccc(F)cc1)Oc1ccc(F)cc1)c1ccccc1 (stereo not drawn) [XXXVII] |  | > 1000 |  |  |  |  |  | 
14 | CCCCCCC(=O)OC(C(Cl)(Cl)Cl)P(=O)(Oc1cccc(C)c1)Oc1cccc(C)c1 (stereo not drawn) [XV] | 98% and 80% | > 1000 | 0.5 | 7.0 | 19.4 | 15.10 |  | 
15 | CCCC(=O)OC(C(Cl)(Cl)Cl)P(=O)(Oc1cccc(C)c1)Oc1cccc(C)c1 (stereo not drawn) [XIV] | 99% and 92% | > 1000 | 0.5 | 7.0 | 17.2 | 12.00 |  | 
16 | CC(=O)OC(C(Cl)(Cl)Cl)P(=O)(Oc1ccc(C)cc1)Oc1ccc(C)cc1 (stereo not drawn) [XVIII] | 91% and 63% | > 500 | 0.5 | 6.5 | 21.4 | 17.20 |  | 
17 | CCCC(=O)OC(C(Cl)(Cl)Cl)P(=O)(Oc1ccc(C)cc1)Oc1ccc(C)cc1 (stereo not drawn) [XX] | 97% | > 1000 | 0.5 | 7.5 | 18.2 | 13.45 |  | 
18 | CC(=O)OC(C(Cl)(Cl)Cl)P(=O)(Oc1ccccc1C)Oc1ccccc1C (stereo not drawn) [VII] | 83% and 77% | > 1000 | 0.5 | 9.0 | 15.1 | 10.10 |  | 
19 | O=P(Oc1ccccc1)(Oc1ccccc1)C(O)C(Cl)(Cl)Cl (stereo not drawn) [reference compound] | 71% and 61% | > 400 |  |  |  |  |  | 
20 | CCCCC(CC)C(=O)OC(C(Cl)(Cl)Cl)P(=O)(Oc1ccccc1)Oc1ccccc1 (stereo not drawn) [V] | 74% and 61% | > 1000 | 0.5 | 13.0 | 14.8 | 9.50 |  | 
21 | CCCCC(CC)C(=O)OC(C(Cl)(Cl)Cl)P(=O)(Oc1cccc(C)c1)Oc1cccc(C)c1 (stereo not drawn) [XVI] | 86% | > 1000 |  |  |  |  |  | 

Row | SMILES | Percentage of injury lowered ([1]; in vivo) | LD50 at 336 h [2] [mg/kg] | Percentage of plants injured with rust, 1-st evaluation [3] [%] | Percentage of plants injured with rust, 2-nd evaluation [3] [%] | Weight of 1,000 grains [3] [g] | Yield [3] [c/ha] | Percentage of injury lowered ([1]; at a concentration of 0.02%, sprayed 3 days before inoculation) [%] | Percentage of injury lowered ([1]; at a concentration of 0.1%, sprayed 3 days before inoculation) [%]
22 | CC(=O)OC(C(Cl)(Cl)Cl)P(=O)(Oc1cccc2ccccc12)Oc1cccc2ccccc12 (stereo not drawn) [XLII] | 92% and 87% | > 1000 |  |  |  |  |  | 
23 | CC(=O)OC(C(Cl)(Cl)Cl)P(=O)(Oc1cccc(C)c1)Oc1cccc(C)c1 (stereo not drawn) [XII] | 86% and 68% | > 1000 | 0.5 | 8.0 | 16.1 | 11.00 |  | 
24 | CCCCCCC(=O)OC(C(Cl)(Cl)Cl)P(=O)(Oc1ccc(F)cc1)Oc1ccc(F)cc1 (stereo not drawn) [XXXV] |  | > 1000 |  |  |  |  |  | 
25 | CCC(=O)OC(C(Cl)(Cl)Cl)P(=O)(Oc1cc(C)cc(C)c1)Oc1cc(C)cc(C)c1 (stereo not drawn) [XXVII] | 92% | > 1000 | 0.5 | 10.5 | 17.1 | 11.50 |  | 
26 | CCCC(=O)OC(C(Cl)(Cl)Cl)P(=O)(Oc1ccccc1)Oc1ccccc1 (stereo not drawn) [III] | 68% and 51% | > 500 | 0.5 | 7.0 | 18.4 | 14.00 |  | 
27 | Cc1ccc(OP(=O)(Oc2ccc(C)cc2)C(OC(=O)c2ccccc2)C(Cl)(Cl)Cl)cc1 (stereo not drawn) [XXIII] | 89% and 79% | > 1000 | 0.5 | 8.0 | 18.1 | 13.30 |  | 
28 | CCCCC(CC)C(=O)OC(C(Cl)(Cl)Cl)P(=O)(Oc1ccc(C)cc1)Oc1ccc(C)cc1 (stereo not drawn) [XXII] | 94% and 48% | > 1000 | 0.5 | 9.0 | 15.8 | 11.00 |  | 
29 | CCCCCCC(=O)OC(C(Cl)(Cl)Cl)P(=O)(Oc1ccc(C)cc1)Oc1ccc(C)cc1 (stereo not drawn) [XXI] | 97% | > 1000 | 0.5 | 7.5 | 18.2 | 14.00 |  | 
30 | COP(=O)(OC)C(OC(C)=O)C(Cl)(Cl)Cl (stereo not drawn) [chloracetophos, O,O-dimethyl-1-acetoxy-2,2,2-trichloroethylphosphonate, reference compound] |  | > 1000 |  |  |  |  | 10 | 54
31 | CCCCCCC(=O)OC(C(Cl)(Cl)Cl)P(=O)(Oc1cc(C)cc(C)c1)Oc1cc(C)cc(C)c1 (stereo not drawn) [XXIX] | 85% | > 1000 | 0.5 | 9.5 | 14.8 | 9.75 |  | 
32 | CC(=O)OC(C(Cl)(Cl)Cl)P(=O)(Oc1ccc(F)cc1)Oc1ccc(F)cc1 (stereo not drawn) [XXXII] | 100% and 84% | > 1000 |  |  |  |  |  | 
33 | CCC(=O)OC(C(Cl)(Cl)Cl)P(=O)(Oc1ccc(Cl)c(C)c1)Oc1ccc(Cl)c(C)c1 (stereo not drawn) [XLI] | 91% and 53% | > 1000 |  |  |  |  |  | 
34 | CCCCCCCCc1ccc(OP(=O)(Oc2ccc(CCCCCCCC)cc2)C(OC(=O)CC)C(Cl)(Cl)Cl)cc1 (stereo not drawn) [XXV] |  | > 1000 | 0.5 | 10.0 | 16.0 | 11.10 |  | 
35 | CCC(=O)OC(C(Cl)(Cl)Cl)P(=O)(Oc1cccc2ccccc12)Oc1cccc2ccccc12 (stereo not drawn) [XLIII] | 89% and 72% | > 1000 |  |  |  |  |  | 
36 | CCCC(=O)OC(C(Cl)(Cl)Cl)P(=O)(Oc1ccc(F)cc1)Oc1ccc(F)cc1 (stereo not drawn) [XXXIV] | 99% and 95% |  | 0.5 | 7.4 | 19.6 | 15.10 |  | 
37 | CC(=O)OC(C(Cl)(Cl)Cl)P(=O)(Oc1ccc(-c2ccccc2)cc1)Oc1ccc(-c2ccccc2)cc1 (stereo not drawn) [XLVI] |  | > 1000 |  |  |  |  |  | 
38 | CCCC(=O)OC(C(Cl)(Cl)Cl)P(=O)(Oc1ccccc1C)Oc1ccccc1C (stereo not drawn) [IX] |  | > 1000 |  |  |  |  |  | 
39 | CCCC(=O)OC(C(Cl)(Cl)Cl)P(=O)(Oc1ccc(-c2ccccc2)cc1)Oc1ccc(-c2ccccc2)cc1 (stereo not drawn) [XLVIII] | 67% | > 1000 |  |  |  |  |  | 
40 | CCC(=O)OC(C(Cl)(Cl)Cl)P(=O)(Oc1ccc(-c2ccccc2)cc1)Oc1ccc(-c2ccccc2)cc1 (stereo not drawn) [XLVII] |  | > 1000 |  |  |  |  |  | 
41 | CC(=O)OC(C(Cl)(Cl)Cl)P(=O)(Oc1ccc(Cl)cc1C)Oc1ccc(Cl)cc1C (stereo not drawn) [XXXVIII] | 92% and 53% | > 500 |  |  |  |  |  | 
